One molecule from patent US9512072B2, “Biodegradable computed tomography contrast agents” (Case Western Reserve University, priority 2013, dated 2016) can be followed below.

In the assay the test system is BALB/c mice. Kind of assay: In vivo blood pool CT imaging on micro-CT scanner. Particulars: 350 mg-I/kg i.v. On the set-up: species or system mouse. How it is done:
The polymeric contrast agents and the control contrast agent, iodixanol, were evaluated with BALB/c mice (18-22 g body weight, 6 mice per agent). All the mice were scanned on the same machine as the in vitro detection. The images were obtained at an x-ray voltage of 80 kVp, an anode current of 500 μA and an exposure time of 200 ms for every rotational steps (total rotation degree is 360 and rotation steps are 180). The field of view was […]. Images were reconstructed in a 1024 pixel×1024 pixel grid with a pixel size of 18 μm×18 μm. […]
CT values are expressed in Hounsfield Units (HU) and were obtained per organ by drawing volumetric regions of interest (RIOs). […] The average HU values and the standard deviation were calculated from the data with 3 ROIs per organ. The CT data was analyzed to determine the contrast enhancement of different agents at various time points post-injection. In vivo CT values of the regions of interest, such as heart, blood, liver and bladder, were measured to study the dynamic enhancement of different organs. […]
The effectiveness of the iodinated polydisulfides for in vivo contrast enhanced CT imaging was assessed in BALB/c mice (18-22 g body weight, 6 mice per agent) on a micro-CT scanner with iodixanol as a control agent. […]

As to `CC(=O)N(CC(O)CN(C(C)=O)c1c(I)c(C(=O)NCC(O)CO)c(I)c(C(=O)NCC(O)CO)c1I)c1c(I)c(C(=O)NCC(O)CO)c(I)c(C(=O)NCC(O)CO)c1I` (centres unmarked) [iodixanol], the “vascular enhancement and delineation” value (10 min after injection) is listed as “did not produce any enhancement”. The “blood signal at its peak” value (pre-injection 27±30 HU) amounted to 56±26 HU.
